Data as given in patent publication US20190327974A1, “SYNERGISTS FOR IMPROVED PESTICIDES” (priority 2017, published 2019).

How the values were obtained:
uPA = biological target: T1, uPA (Homo sapiens, UniProt P00749); assay: Protease selectivity panel; assay type: biochemical; details: 100 μM compound, n = 2
T1 construct: purchased R&D Systems
Experimental: (§1) Test compounds were dissolved in 100% DMSO to make 10 mM stock. Final compound concentration in assay is […]. Compounds were tested in duplicate wells at single concentration and the final concentration of DMSO in all assays was kept at 1%. Five reference compounds, AEBSF, Carfilzomib, Granzyme B Inhibitor II, Dec-RVKR-CMK, and Teneligliptin hydrobromide, were tested in an identical manner with 8 concentration points at 5× dilutions.

PSMB5 = biological target: T2, PSMB5 (Homo sapiens, UniProt P28074); assay: Protease selectivity panel; assay type: biochemical; details: 100 μM compound, n = 2
T2 construct: purchased BOSTON-BIOCHEM
Experimental: as §1

Matriptase = biological target: T3, Matriptase (Homo sapiens, UniProt Q9Y5Y6); assay: Protease selectivity panel; assay type: biochemical; details: 100 μM compound, n = 2
T3 construct: purchased R&D Systems
T3 sequence (Q9Y5Y6 1-855): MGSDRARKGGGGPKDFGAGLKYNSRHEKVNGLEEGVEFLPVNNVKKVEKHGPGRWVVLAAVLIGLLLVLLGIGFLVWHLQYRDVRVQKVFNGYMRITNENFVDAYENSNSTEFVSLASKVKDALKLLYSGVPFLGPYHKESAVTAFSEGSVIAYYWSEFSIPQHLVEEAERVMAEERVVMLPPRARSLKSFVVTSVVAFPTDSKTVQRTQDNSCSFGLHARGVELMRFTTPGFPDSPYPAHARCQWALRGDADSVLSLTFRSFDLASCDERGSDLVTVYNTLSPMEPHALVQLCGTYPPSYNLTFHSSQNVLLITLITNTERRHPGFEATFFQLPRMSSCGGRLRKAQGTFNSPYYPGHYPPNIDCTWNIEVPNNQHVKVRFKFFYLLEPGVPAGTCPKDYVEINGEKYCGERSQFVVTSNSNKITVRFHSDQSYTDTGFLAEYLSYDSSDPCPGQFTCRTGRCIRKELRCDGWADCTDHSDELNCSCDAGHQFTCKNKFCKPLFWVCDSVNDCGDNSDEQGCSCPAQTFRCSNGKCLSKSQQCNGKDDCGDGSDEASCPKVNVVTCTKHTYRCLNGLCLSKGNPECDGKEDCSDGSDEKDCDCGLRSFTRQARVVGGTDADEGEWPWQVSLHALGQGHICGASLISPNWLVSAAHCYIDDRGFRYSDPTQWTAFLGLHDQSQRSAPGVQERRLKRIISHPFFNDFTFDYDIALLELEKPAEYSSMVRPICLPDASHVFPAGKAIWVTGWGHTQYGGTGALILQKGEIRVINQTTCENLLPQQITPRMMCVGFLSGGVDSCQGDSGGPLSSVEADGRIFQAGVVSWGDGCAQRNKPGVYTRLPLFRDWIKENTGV
Experimental: as §1

Factor VII = biological target: T4, Factor VII (Homo sapiens, UniProt P08709); assay: Protease selectivity panel; assay type: biochemical; details: 100 μM compound, n = 2
T4 construct: purchased R&D Systems
T4 sequence (P08709 213-466 limits assumed): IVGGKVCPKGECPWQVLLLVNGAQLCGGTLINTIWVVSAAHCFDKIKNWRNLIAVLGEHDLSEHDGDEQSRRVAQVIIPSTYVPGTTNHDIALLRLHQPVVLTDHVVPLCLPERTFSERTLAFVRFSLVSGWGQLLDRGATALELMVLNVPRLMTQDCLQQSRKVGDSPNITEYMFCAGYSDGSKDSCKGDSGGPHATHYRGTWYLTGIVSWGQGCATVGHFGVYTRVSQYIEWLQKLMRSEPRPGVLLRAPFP
T4 sequence (P08709 61-212 partner limits assumed): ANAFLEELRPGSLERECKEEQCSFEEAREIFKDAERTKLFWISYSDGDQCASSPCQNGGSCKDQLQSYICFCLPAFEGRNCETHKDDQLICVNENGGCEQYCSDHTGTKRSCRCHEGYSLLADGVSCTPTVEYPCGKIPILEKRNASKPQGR
T4 sequence (P13726 33-251 partner limits assumed): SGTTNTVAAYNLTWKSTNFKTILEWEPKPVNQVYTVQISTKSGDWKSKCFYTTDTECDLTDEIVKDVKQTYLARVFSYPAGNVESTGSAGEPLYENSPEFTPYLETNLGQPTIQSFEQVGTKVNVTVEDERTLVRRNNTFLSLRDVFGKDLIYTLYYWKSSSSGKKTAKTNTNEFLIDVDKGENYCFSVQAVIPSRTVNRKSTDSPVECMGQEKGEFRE
Experimental: as §1

HTRA2 = biological target: T5, HTRA2 (Homo sapiens, UniProt O43464); assay: Protease selectivity panel; assay type: biochemical; details: 100 μM compound, n = 2
T5 construct: purchased R&D Systems
T5 sequence (O43464 134-458): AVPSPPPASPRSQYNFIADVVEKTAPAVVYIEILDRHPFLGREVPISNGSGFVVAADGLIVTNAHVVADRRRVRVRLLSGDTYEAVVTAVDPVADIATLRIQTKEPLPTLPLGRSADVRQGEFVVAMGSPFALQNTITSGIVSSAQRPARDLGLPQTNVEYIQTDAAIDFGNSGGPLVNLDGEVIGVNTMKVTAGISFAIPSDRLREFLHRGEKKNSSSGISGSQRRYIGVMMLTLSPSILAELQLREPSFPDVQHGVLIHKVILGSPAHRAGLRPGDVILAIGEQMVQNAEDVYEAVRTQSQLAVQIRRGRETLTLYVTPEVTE
Experimental: as §1

DPP9 = biological target: T6, DPP9 (Homo sapiens, UniProt Q86TI2); assay: Protease selectivity panel; assay type: biochemical; details: 100 μM compound, n = 2
T6 construct: purchased ENZO
T6 sequence (Q86TI2 whole entry): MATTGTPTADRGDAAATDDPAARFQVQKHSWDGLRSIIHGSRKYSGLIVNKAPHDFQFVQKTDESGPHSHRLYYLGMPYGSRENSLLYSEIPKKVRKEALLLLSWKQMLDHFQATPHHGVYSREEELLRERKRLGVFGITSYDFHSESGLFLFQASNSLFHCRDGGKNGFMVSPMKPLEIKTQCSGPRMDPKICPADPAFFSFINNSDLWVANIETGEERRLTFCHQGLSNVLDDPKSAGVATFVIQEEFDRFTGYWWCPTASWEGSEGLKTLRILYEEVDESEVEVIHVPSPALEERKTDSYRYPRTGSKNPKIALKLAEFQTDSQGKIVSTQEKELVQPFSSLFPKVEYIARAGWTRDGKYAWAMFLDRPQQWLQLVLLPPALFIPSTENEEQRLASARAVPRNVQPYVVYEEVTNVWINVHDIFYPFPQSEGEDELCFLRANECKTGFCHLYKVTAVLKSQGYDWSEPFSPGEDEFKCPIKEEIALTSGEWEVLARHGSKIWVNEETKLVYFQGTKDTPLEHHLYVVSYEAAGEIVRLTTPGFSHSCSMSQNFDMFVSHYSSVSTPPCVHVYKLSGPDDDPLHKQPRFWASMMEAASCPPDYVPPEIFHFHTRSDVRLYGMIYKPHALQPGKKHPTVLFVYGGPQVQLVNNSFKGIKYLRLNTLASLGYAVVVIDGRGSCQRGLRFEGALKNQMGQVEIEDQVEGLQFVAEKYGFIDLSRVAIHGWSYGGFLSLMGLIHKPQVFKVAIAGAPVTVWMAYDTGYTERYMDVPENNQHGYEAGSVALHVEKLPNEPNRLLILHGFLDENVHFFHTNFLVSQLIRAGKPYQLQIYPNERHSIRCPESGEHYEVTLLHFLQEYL
Experimental: as §1

[1] = tested on: HB-2 and MDA-MB-231 human cell lines; assay: Cell toxicity, two human cell lines HB-2 and MDA-MB-231; assay type: cell-based; details: 48 h, up to 100 μM
Experimental: FIG. 13 depicts that boronic acids show little cell toxicity. Compounds 1-5 as well as 3.9 and 3.10 were incubated for 48 h with two different human cell lines HB-2 and MDA-MB-231 at 7 concentrations up to 100 μM. Cell viability was measured after 48 h using Cell Titer Glo assay.
A seven-point, two-fold dose response series, with a 100 uM as the upper limit and a DMSO-only control point was generated using an Echo 550 liquid handler (Labcyte Inc.) in 384-well plates. Subsequently, the human breast cell lines MDA-MB-231 (tumorigenic) and HB2 (non-tumorigenic) were seeded (1000 cells/well) using a multi-drop Combi (Thermo Fisher Scientific) on top of the compounds. Plates were then incubated at 37° C. and 5% CO2 for 48 hours upon which cell viability was assessed by adding CellTiter-Glo® (Promega) to the reaction. The luminescence signal was measured on a Pherastar FS multi-mode plate reader (BMG Labtech).

[2] = tested on: Myzus persicae (Green peach aphid); assay: CPE combined with boronic acid derivatives on small broad bean leaves; assay type: in vivo; details: for Percentage of efficacy: boronic acid, where present, 0.2 mg/ml; for toxicity of the boronic acid derivative alone (in words): ANOVAs followed by Newman-Keuls tests, threshold 5%; for insecticidal efficacy of CPE on addition of the compound (in words): CPE at 2.8 g a.i./ha and 5.6 g a.i./ha
Experimental: […] The treatment was performed with an agricultural nozzle (300 L per hectare) […]. A non-treated control condition were also evaluated in parallel. Statistical analysis of the data was then performed. When the leaves were totally dry, 3 leaves were sampled and infested with 3 wingless adults of M. persicae per leaf fragment.
• T+1 (DAT 1)—One day later the number of adults remaining on the leaves was counted. • T+3 (DAT 3)—3 days after treatment the aphid population was estimated; • T+7 (DAT 7)—7 days after treatment the development of aphid population was estimated.
3 bean leaves fragments per microbox*4 microbox per condition (1 condition is 1 formulation at 1 dose)*9 adult aphids per microbox*4 insecticides (3 chlorpyrifos derivates+clorpyrifos alone)*4 rates+2 controls (1 reference insecticide formulation at one dose and non-treated)*3 assessments timings (DAT+1, DAT+3 and DAT+7).

Question: Which results are given for `OB(O)c1cc(Br)cc(N2CCCC2)c1` [Compound 3]?
Answer: inhibition at 100 µM (uPA): 67%; inhibition at 100 µM (PSMB5): 3%; inhibition at 100 µM (Matriptase): -1%; inhibition at 100 µM (Factor VII): 15%; inhibition at 100 µM (HTRA2): 23%; inhibition at 100 µM (DPP9): 45%

Question: Which results are given for `OB(O)c1cc(Br)cc(OCc2ccccc2)c1` [Compound 3.9]?
Answer: cellular toxicity [1]: do not exhibit any cellular toxicity up to 100 μM; inhibition at 100 µM (uPA): 40%; inhibition at 100 µM (PSMB5): 34%; inhibition at 100 µM (Matriptase): 5%; inhibition at 100 µM (Factor VII): 26%; inhibition at 100 µM (HTRA2): 28%; inhibition at 100 µM (DPP9): 75%

Question: How did the “cellular toxicity” value [1] turn out when `Cc1ccc(B(O)O)cc1OCc1ccccc1` [Compound 2] was run?
Answer: low toxicity against HB-2

Question: With `CCOP(=S)(OCC)Oc1nc(Cl)c(Cl)cc1Cl` [CPE, Chlorpyrifos-ethyl] as the compound, how does the Percentage of efficacy ([2]; 1 DAT, CPE 0.7) read?
Answer: 38%

Question: What about the Percentage of efficacy ([2]; 1 DAT, CPE 1.4) of the same compound?
Answer: 41%

Question: And the Percentage of efficacy ([2]; 1 DAT, CPE 2.8 g a.i./ha)?
Answer: 32%

Question: What about the Percentage of efficacy ([2]; 1 DAT, CPE 5.6 g a.i./ha) of the same compound?
Answer: 36%

Question: What about the Percentage of efficacy ([2]; 3 DAT, CPE 0.7) of the same compound?
Answer: 20%

Question: What about the Percentage of efficacy ([2]; 3 DAT, CPE 1.4) of the same compound?
Answer: 27%

Question: What about the Percentage of efficacy ([2]; 3 DAT, CPE 2.8 g a.i./ha) of the same compound?
Answer: 26%

Question: And the Percentage of efficacy ([2]; 3 DAT, CPE 5.6 g a.i./ha)?
Answer: 48%

Question: What about the Percentage of efficacy ([2]; 7 DAT, CPE 0.7) of the same compound?
Answer: 25%

Question: What about the Percentage of efficacy ([2]; 7 DAT, CPE 1.4) of the same compound?
Answer: 25%

Question: And the Percentage of efficacy ([2]; 7 DAT, CPE 2.8 g a.i./ha)?
Answer: 23%

Question: And the Percentage of efficacy ([2]; 7 DAT, CPE 5.6 g a.i./ha)?
Answer: 67%

Question: And the Calibration results ([2]; 1 DAT, CPE 1.4)?
Answer: 33%

Question: What about the Calibration results ([2]; 1 DAT, CPE 2.8) of the same compound?
Answer: 31%

Question: And the Calibration results ([2]; 1 DAT, CPE 5.6)?
Answer: 67%

Question: And the Calibration results ([2]; 3 DAT, CPE 1.4)?
Answer: 51%

Question: What about the Calibration results ([2]; 3 DAT, CPE 2.8) of the same compound?
Answer: 79%

Question: What about the Calibration results ([2]; 3 DAT, CPE 5.6) of the same compound?
Answer: 98%

Question: What about the Calibration results ([2]; 7 DAT, CPE 1.4) of the same compound?
Answer: 51%

Question: What about the Calibration results ([2]; 7 DAT, CPE 2.8) of the same compound?
Answer: 99%

Question: And the Calibration results ([2]; 7 DAT, CPE 5.6)?
Answer: 100%

Question: With `OB(O)c1cc(Br)cc(Oc2ccccc2)c1` [Compound 3.10, 3-Bromo-5-phenoxyfenylboronic acid] as the compound, how does the “cellular toxicity” value [1] read?
Answer: do not exhibit any cellular toxicity up to 100 μM

Question: What about the “toxicity of the boronic acid derivative alone (in words)” value (“toxicity … (in words)” for short) [2] of the same compound?
Answer: No significant toxicity

Question: What about the “insecticidal efficacy of CPE on addition of the compound (in words)” value (“insecticidal efficacy of CPE” below) [2] of the same compound?
Answer: increased

Question: What about the inhibition at 100 µM (uPA) of the same compound?
Answer: 32%

Question: What about the inhibition at 100 µM (PSMB5) of the same compound?
Answer: 2%

Question: And the inhibition at 100 µM (Matriptase)?
Answer: 4%

Question: And the inhibition at 100 µM (Factor VII)?
Answer: 53%

Question: What about the inhibition at 100 µM (HTRA2) of the same compound?
Answer: 2%

Question: What about the inhibition at 100 µM (DPP9) of the same compound?
Answer: 71%

Question: Which “cellular toxicity” value [1] does the source give for `OB(O)c1ccc(OCc2ccccc2F)c(Cl)c1` [Compound 5, 3-Chloro-4(2′-fluorobenzyloxy) phenylboronic acid] here?
Answer: low toxicity against HB-2

Question: What about the “toxicity … (in words)” value [2] of the same compound?
Answer: No significant toxicity

Question: And the “insecticidal efficacy of CPE” value [2]?
Answer: increased

Question: Which “toxicity … (in words)” value [2] does the source give for `CC(C)Oc1cc(Br)cc(B(O)O)c1` [Compound 3.7, 3-Bromo-5-isopropoxyphenylboronic acid] here?
Answer: No significant toxicity

Question: What about the “insecticidal efficacy of CPE” value [2] of the same compound?
Answer: increased
